Test results: the supplement of paper PMC11061612

How the values were obtained:
Assay in all cases: combination Emax (second highest fraction inhibited in the dose matrix, 72 h); higher = more inhibition; extreme values may be limits of the assay
[1] = test system: Caov-3 (Ovarian Carcinoma)
Method in brief: (§1)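 Cell lines in DMEM/F12 or RPMI with 10% FBS were plated in 1536-well plates, held 24 hours at 37°C, 5% CO2, then given two-drug dose matrices for 72 hours (DMSO typically 0.2%). Viability was read by CellTiter-Glo 2.0 luminescence and scaled as inhibition from 0 (vehicle wells) to 1 (blank wells). Combination Emax is the second-highest inhibition in the matrix; Bliss excess is observed combination effect minus expected EA + EB − EA·EB, EA and EB being single-agent effects.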

[2] = test system: Calu-6 (Non-Small Cell Lung Carcinoma)
Method in brief: as §1

[3] = test system: JHH-1 (Hepatocellular Carcinoma)
Method in brief: as §1

[4] = test system: SJRH30 (Rhabdomyosarcoma)
Method in brief: as §1

[5] = test system: LAMA-84 (Chronic Myelogenous Leukemia)
Method in brief: as §1

[6] = test system: NCI-H1563 (Lung Adenocarcinoma)
Method in brief: as §1

[7] = test system: RERF-LC-KJ (Lung Adenocarcinoma)
Method in brief: as §1

[8] = test system: RMG-I (Ovarian Carcinoma)
Method in brief: as §1

[9] = test system: EB-3 (Burkitt's Lymphoma)
Method in brief: as §1

[10] = test system: Becker (Low Grade Glioma)
Method in brief: as §1

[11] = test system: KYSE-70 (Esophageal Squamous Cell Carcinoma)
Method in brief: as §1

[12] = test system: HTC-C3 (Thyroid Gland Carcinoma)
Method in brief: as §1

[13] = test system: AN3-CA (Endometrial Carcinoma)
Method in brief: as §1

[14] = test system: LOUCY (T-Lymphoblastic Leukemia)
Method in brief: as §1

[15] = test system: RPMI-8866 (Chronic Myelogenous Leukemia)
Method in brief: as §1

[16] = test system: SNU-175 (Colorectal Carcinoma)
Method in brief: as §1

[17] = test system: 786-0 (Kidney Carcinoma)
Method in brief: as §1

[18] = test system: BALL-1 (B-Lymphoblastic Leukemia)
Method in brief: as §1

[19] = test system: PANC-02-03 (Pancreatic Carcinoma)
Method in brief: as §1

[20] = test system: NCI-H810 (Non-Small Cell Lung Carcinoma)
Method in brief: as §1

| Structure (SMILES) | combination Emax [1] | combination Emax [2] | combination Emax [3] | combination Emax [4] | combination Emax [5] | combination Emax [6] | combination Emax [7] | combination Emax [8] | combination Emax [9] | combination Emax [10] | combination Emax [11] | combination Emax [12] | combination Emax [13] | combination Emax [14] | combination Emax [15] | combination Emax [16] | combination Emax [17] | combination Emax [18] | combination Emax [19] | combination Emax [20] |
| --- | --- | --- | --- | --- | --- | --- | --- | --- | --- | --- | --- | --- | --- | --- | --- | --- | --- | --- | --- | --- |
| CN(CCO)CC[C@H](CSc1ccccc1)Nc1ccc(S(=O)(=O)NC(=O)c2ccc(N3CCC([C@@H](O)c4ccccc4-c4ccc(Cl)cc4)CC3)cc2)cc1S(=O)(=O)C(F)(F)F [AZD4320] + C[C@@H](Nc1cc(F)cc(F)c1)c1cc(C(=O)N(C)C)cc2c(=O)cc(N3CCOCC3)oc12 [AZD8186] (first compound max 1 µM, 7x7, partner max 3 µM) | 0.911 | 0.592 | 0.747 | 0.457 | 0.728 | 0.565 | 0.431 | 0.868 | 0.332 | 0.431 | 0.211 | 0.407 | 0.624 | 1 | 0.864 | 0.908 | 0.415 | 1 | 0.278 | 0.592 |
| CN(CCO)CC[C@H](CSc1ccccc1)Nc1ccc(S(=O)(=O)NC(=O)c2ccc(N3CCC([C@@H](O)c4ccccc4-c4ccc(Cl)cc4)CC3)cc2)cc1S(=O)(=O)C(F)(F)F [AZD4320] + CCN(CCO)CCCOc1ccc2c(Nc3cc(CC(=O)Nc4cccc(F)c4)[nH]n3)ncnc2c1 [AZD2811] (first compound max 1 µM, 7x7, partner max 1 µM) | 0.94 | 0.801 | 0.82 | 0.503 | 0.906 | 0.188 | 0.309 | 0.728 | 0.241 | 0.224 | 0.391 | 0.347 | 0.474 | 1 | 0.952 | 0.996 | 0.166 | 1 | 0.179 | 0.894 |
| CN(C)CCCOc1ccc(-c2ccc3ncc4c(c3c2)n(C2CCOCC2)c(=O)n4C)cn1 [AZD0156] + C=CCn1c(=O)c2cnc(Nc3ccc(N4CCN(C)CC4)cc3)nc2n1-c1cccc(C(C)(C)O)n1 [AZD1775] (first compound max 1 µM, partner max 1 µM) | 0.65 | 0.722 | 0.463 | 0.809 | 0.942 | 0.367 | 0.33 | 0.291 | 0.736 | 0.177 | 0.538 | 0.351 | 0.351 | 1 | 0.965 | 0.405 | 0.536 | 0.977 | 0.672 | 0.889 |
| CC1(C)CCC(CN2CCN(c3ccc(C(=O)NS(=O)(=O)c4ccc(NCC5CCOCC5)c([N+](=O)[O-])c4)c(Oc4cnc5[nH]ccc5c4)c3)CC2)=C(c2ccc(Cl)cc2)C1 [Venetoclax] + CCN(CCO)CCCOc1ccc2c(Nc3cc(CC(=O)Nc4cccc(F)c4)[nH]n3)ncnc2c1 [AZD2811] (first compound max 1 µM, 7x7, partner max 1 µM) | 0.892 | 0.346 | 0.268 | 0.287 | 0.594 | 0.193 | 0.298 | 0.302 | 0.319 | 0.221 | 0.224 | 0.121 | 0.399 | 1 | 0.601 | 0.912 | 0.159 | 1 | 0.217 | 0.492 |
| CC1(C)CCC(CN2CCN(c3ccc(C(=O)NS(=O)(=O)c4ccc(NCC5CCOCC5)c([N+](=O)[O-])c4)c(Oc4cnc5[nH]ccc5c4)c3)CC2)=C(c2ccc(Cl)cc2)C1 [Venetoclax] + Cc1cc2ncnn2cc1Nc1ncc2c(n1)n(C1CCOCC1)c(=O)n2C [AZD7648] (first compound max 1 µM, 7x7, partner max 10 µM) | 0.528 | 0.275 | 0.199 | 0.187 | 0.299 | 0.391 | 0.357 | 0.312 | 0.477 | 0.19 | 0.169 | 0.205 | 0.411 | 1 | 0.316 | 0.131 | 0.136 | 1 | 0.208 | 0.221 |
| CCN(CCO)CCCOc1ccc2c(Nc3cc(CC(=O)Nc4cccc(F)c4)[nH]n3)ncnc2c1 [AZD2811] + O=C(c1cc(Cc2n[nH]c(=O)c3ccccc23)ccc1F)N1CCN(C(=O)C2CC2)CC1 [Olaparib] (first compound max 1 µM, 7x7, partner max 10 µM) | 0.82 | 0.239 | 0.161 | 0.255 | 0.488 | 0.158 | 0.333 | 0.231 | 0.282 | 0.12 | 0.203 | 0.248 | 0.282 | 0.924 | 0.69 | 0.611 | 0.149 | 0.848 | 0.307 | 0.646 |
| Cc1c2c(nn1C)CSCc1cc(n(C)n1)CSc1cc(c3ccccc3c1)OCCCc1c(C(=O)O)n(C)c3c-2c(Cl)ccc13 [AZD5991] + C[C@@H](Nc1cc(F)cc(F)c1)c1cc(C(=O)N(C)C)cc2c(=O)cc(N3CCOCC3)oc12 [AZD8186] (first compound max 1 µM, 7x7, partner max 3 µM) | 0.374 | 0.222 | 0.462 | 0.588 | 0.12 | 0.824 | 0.527 | 0.426 | 0.262 | 0.462 | 0.173 | 0.277 | 0.899 | 0.47 | 0.592 | 0.723 | 0.374 | 0.374 | 0.232 | 0.3 |
| CCc1c2c(nc3ccc(O)cc13)-c1cc3c(c(=O)n1C2)COC(=O)[C@]3(O)CC [SN-38] + O=C(c1cc(Cc2n[nH]c(=O)c3ccccc23)ccc1F)N1CCN(C(=O)C2CC2)CC1 [Olaparib] (first compound max 0.3 µM, 7x7, partner max 10 µM) | 0.984 | 0.776 | 0.539 | 0.444 | 0.948 | – | – | 0.421 | 0.682 | 0.818 | 0.304 | 0.686 | – | 0.764 | 0.994 | 0.471 | 0.931 | 1 | 0.728 | 0.557 |
| CC1(C)CCC(CN2CCN(c3ccc(C(=O)NS(=O)(=O)c4ccc(NCC5CCOCC5)c([N+](=O)[O-])c4)c(Oc4cnc5[nH]ccc5c4)c3)CC2)=C(c2ccc(Cl)cc2)C1 [Venetoclax] + C[C@@H]1COCCN1C2=NC(=NC(=C2)C3(CC3)[S@](=N)(=O)C)C4=C5C=CNC5=NC=C4 [AZD6738] (first compound max 1 µM, 7x7, partner max 10 µM) | 0.794 | 0.801 | 0.609 | 0.864 | 0.975 | 0.307 | 0.313 | 0.545 | 0.6 | 0.656 | 0.433 | 0.674 | 0.653 | 1 | 0.958 | 0.658 | 0.712 | 1 | 0.508 | 0.577 |
| NC1(C(=O)N[C@@H](CCO)c2ccc(Cl)cc2)CCN(c2ncnc3[nH]ccc23)CC1 [Capivasertib] + CC(=O)c1c(C)c2cnc(Nc3ccc(N4CCNCC4)cn3)nc2n(C2CCCC2)c1=O [Palbociclib] (first compound max 10 µM, 7x7, partner max 10 µM) | – | 0.415 | 0.143 | 0.794 | 0.558 | 0.47 | 0.436 | 0.288 | 0.428 | 0.624 | 0.377 | 0.474 | 0.803 | 0.688 | 0.75 | 0.634 | 0.681 | 0.597 | 0.202 | 0.141 |
| C=CCn1c(=O)c2cnc(Nc3ccc(N4CCN(C)CC4)cc3)nc2n1-c1cccc(C(C)(C)O)n1 [AZD1775] + C1CN(CCC1(C(=O)N[C@@H](CCO)C2=CC=C(C=C2)Cl)N)C3=NC=NC4=C3C=CN4 [Capivasertib] (first compound max 3 µM, partner max 3 µM) | – | 0.8 | 0.691 | 0.955 | 0.939 | 0.459 | 0.548 | 0.47 | 0.829 | 0.602 | 0.534 | 0.642 | 0.905 | 1 | 0.964 | 0.917 | 0.817 | 1 | 0.605 | 0.873 |
| Cn1cnc2c(F)c(Nc3ccc(Br)cc3Cl)c(C(=O)NOCCO)cc21 [Selumetinib] + C=CCn1c(=O)c2cnc(Nc3ccc(N4CCN(C)CC4)cc3)nc2n1-c1cccc(C(C)(C)O)n1 [AZD1775] (first compound max 10 µM, partner max 1 µM) | – | 0.855 | 0.599 | 0.846 | 0.973 | 0.303 | 0.401 | 0.359 | 0.703 | 0.309 | 0.328 | 0.691 | 0.354 | 0.977 | 0.956 | 0.718 | 0.572 | 1 | 0.572 | 0.542 |
